pIC50: −log10 of the molar value.
Columns and labels:
IDO1 [1] = biological target: T1, IDO1 (Homo sapiens, UniProt P14902); assay: IDO1 Cellular Assay in Hela Cells Stimulated with IFNγ; type: cell-based; details: IFNγ 100 ng/mL, 300 uM L-tryptophan, about 48 hours, fluorescence readout, read-out: IDO1 HELA Cell Assay, IC50
How it was run: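 HeLa cells stimulated with 100 ng/mL IFNγ, supplemented with 300 uM L-tryptophan, incubated 48 h at 37° C with ten 3-fold compound dilutions. Unstimulated cells served as Max-E control. Kynurenine detected by fluorescence (ex 400/em 510 nm) after overnight methyl isonipecotate reaction; IC50 by four-parameter logistic fit.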

IDO1 [2] = biological target: T1, IDO1; assay: IDO1 Human whole blood Assay; type: cell-based; set-up: Human whole blood was drawn in sodium heparin coated tubes from healthy internal donors; from tissue; host or cells: Human whole blood from healthy donors, stimulated with LPS and IFNγ; details: LPS and IFNγ 100 ng/mL, 18 h, kynurenine by LC/MS/MS
Procedure: Compounds to be tested were serially diluted in ten 3-fold steps in DMSO starting from 10 mM. 3 μL of compound dilutions or DMSO alone were then dispensed from the dilution plate into a polypropylene 96-well assay plate containing 97 μL of RPMI using an Echo 555 acoustic liquid handler (Labcyte). LPS and IFNγ was prepared in RPMI to a 10× of final conc. (1000 ng/mL), final concentration is 100 ng/mL.
Human whole blood was drawn in sodium heparin coated tubes from healthy internal donors. Two hundred forty μL of blood was transferred to each of the wells of a v-bottom 96 well plate. Thirty μL of compound was transferred from intermediate dilution plate, and incubated for 15 min. Thirty μL from stimulants was then transferred to blood and mixed thoroughly. Plate was covered with breathable membrane and incubated at 37° C. for overnight (18 h).
On day 2 isotope labeled standard of kynurenine and tryptophan was made in water at 10× concentration and 30 μL was added to the blood at 3 μM final concentration. The assay plates were centrifuged at 300×G for 10 min with no brake to separate plasma from red blood cells. Sixty μL of plasma samples was removed without disturbing red blood cells. Plasma was diluted with RPMI in 1:1 ratio and proteins were precipitated out with two volume of acetonitrile. The plates were centrifuged at 4000×G for 60 min. Twenty μL of supernatant was carefully transferred to a 384 well plate containing 40 μL of 0.1% formic acid in water and analyzed by LC/MS/MS.
LC/MS/MS analyses were performed using Thermo Fisher's LX4-TSQ Quantum Ultra system. This system consists of four Agilent binary high-performance liquid chromatography (HPLC) pumps and a TSQ Quantum Ultra triple quadruple MS/MS instrument. For each sample, 5 μL were injected onto an Atlantis T3 column (2.1 mm×150 mm, 3 μm particle size) from Waters. The mobile phase gradient pumped at 0.8 mL/min was used to elute the analytes from the column at 25° C. The elution started at 0% B increasing linearly to 25% B at 6.5 min, holding at 25% for 1 min, re-equilibrating to 10 min. Mobile phase A consisted of 0.1% formic acid in water. Mobile phase B consisted of 0.1% of formic acid in acetonitrile. Data was acquired in positive mode using a HESI interface. The operational parameters for the TSQ Quantum Ultra instrument were a spray voltage of 4000 V, capillary temperature of 380° C., vaporizer temperature 400° C., shealth gas 60 arbitrary units, Aux gas 20 arbitrary units, tube lens 85 and collision gas 1.2 mTorr. SRM chromatograms of kynurenine (Q1: 209.2>Q3:94.0) and internal standard (Q1: 215.3>Q3:98.2) were collected for 90 sec. The peak area was integrated by Xcalibur Quan software. The ratios between the kynurenine generated in the reaction and 2D6-Kynurenine spiked-in internal standard were used to generate percentage inhibition and IC50 values. Compounds were titrated and IC50's were calculated by 4 parameter sigmoidal curve fitting formula.
The biological activity data of selective compounds using the IDO1 human whole blood assay described above are summarized in the table below.

T1 sequence (P14902 whole entry): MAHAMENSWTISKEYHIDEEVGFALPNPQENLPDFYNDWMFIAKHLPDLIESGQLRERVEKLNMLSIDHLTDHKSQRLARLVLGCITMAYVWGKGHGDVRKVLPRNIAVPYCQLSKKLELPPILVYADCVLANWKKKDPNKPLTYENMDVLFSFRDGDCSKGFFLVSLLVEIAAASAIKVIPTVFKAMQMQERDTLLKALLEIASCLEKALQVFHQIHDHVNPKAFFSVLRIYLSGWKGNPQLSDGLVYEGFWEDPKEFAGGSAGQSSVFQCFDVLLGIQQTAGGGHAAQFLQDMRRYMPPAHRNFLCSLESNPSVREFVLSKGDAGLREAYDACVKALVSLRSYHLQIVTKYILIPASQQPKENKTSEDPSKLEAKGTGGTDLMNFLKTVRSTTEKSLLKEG

Row | Structure (SMILES) | pIC50 (IDO1 [1]) | pIC50 (IDO1 [2])
1 | CC(C(=O)Nc1ccc(F)cc1)C12CC(NC(=O)c3ccc(Cl)c(Cl)c3)(C1)C2 (single isomer, unassigned) [Example 8, 3,4-dichloro-N-(3-(1-((4-fluorophenyl)amino)-1-oxopropan-2-yl)bicyclo[1.1.1]pentan-1-yl)benzamide] | 8.51 | 6.11
2 | Cc1ccc(C(=O)NC23CC([C@@H](C)C(=O)Nc4ccc(F)cc4)(C2)C3)cc1Cl [Example 36, 3-chloro-N-[3-[(1R)-2-(4-fluoroanilino)-1-methyl-2-oxo-ethyl]-1-bicyclo[1.1.1]pentanyl]-4-methyl-benzamide] | 8.67 | 6.86
3 | CC(C(=O)Nc1ccc(Cl)nc1)C12CC(NC(=O)c3cccc(Cl)c3)(C1)C2 (single isomer, unassigned) [Example 17, 3-chloro-N-(3-(1-((6-chloropyridin-3-yl)amino)-1-oxopropan-2-yl)bicyclo[1.1.1]pentan-1-yl)benzamide] | 8.28 | 6.75

More lines, now with the values ahead:

Row | pIC50 (IDO1 [1]) | pIC50 (IDO1 [2]) | Structure (SMILES)
4 | 8.52 | 6.95 | CC(C(=O)Nc1ccc(F)cc1)C12CC(NC(=O)c3cccc(Cl)c3)(C1)C2 (single isomer, unassigned) [Example 1, 3-Chloro-N-(3-(1-((4-fluorophenyl)amino)-1-oxopropan-2-yl)bicyclo[1.1.1]pentan-1-yl)benzamide]
5 | 8.60 | 7.27 | C[C@H](C(=O)Nc1ccc(F)cc1)C12CC(NC(=O)c3ccc(Cl)cc3F)(C1)C2 [Example 52, 4-chloro-2-fluoro-N-[3-[(1S)-2-(4-fluoroanilino)-1-methyl-2-oxo-ethyl]-1-bicyclo[1.1.1]pentanyl]benzamide]
6 | 8.80 | 6.28 | CC(C(=O)Nc1ccc(Cl)c(F)c1)C12CC(NC(=O)c3cccc(Cl)c3)(C1)C2 (single isomer, unassigned) [Example 11, 3-chloro-N-(3-(1-((4-chloro-3-fluorophenyl)amino)-1-oxopropan-2-yl)bicyclo[1.1.1]pentan-1-yl)benzamide]
7 | 8.52 | 7.31 | C[C@H](C(=O)Nc1ccc(F)cc1)C12CC(NC(=O)c3cc(F)c(F)c(F)c3)(C1)C2 [Example 145, (S)-3,4,5-trifluoro-N-(3-(1-((4-fluorophenyl)amino)-1-oxopropan-2-yl)bicyclo[1.1.1]pentan-1-yl)benzamide]

Reference: patent US11478461B2, “[1.1.1] bicyclo compounds as indoleamine 2,3-dioxygenase inhibitors” (Merck Sharp & Dohme Corp., priority 2018, dated 2022)
